EC50 data for two compounds are collected here from BindingDB's records for doi:10.1016/j.bmcl.2019.04.027 (Gilead Sciences, 2019).

A short description of assay [1]: Inhibition of NS5A in HCV genotype 1a H77 infected in human HuH7 replicon cells assessed as reduction in viral replication after 3 days by luciferase reporter gene assay.
The nature of assay [2]: Inhibition of NS5A in HCV genotype 1b Con1 infected in human HuH7 replicon cells assessed as reduction in viral replication after 3 days by luciferase reporter gene assay. A general note: Replicon systems follow genome replication, usually without infectious particles.
Assay [3] can be described thus: Inhibition of NS5A in HCV genotype 2b MD2b-1 infected in human HuH7 replicon cells assessed as reduction in viral replication after 3 days by luciferase reporter gene assay.
Assay [4] in a line: Inhibition of NS5A in wild type HCV genotype 1a infected in human HuH7 replicon cells assessed as reduction in viral replication after 3 days by luciferase reporter gene assay.
Assay [5] in a line: Inhibition of NS5A in wild type HCV genotype 1b infected in human HuH7 replicon cells assessed as reduction in viral replication after 3 days by luciferase reporter gene assay.
Assay [6] is described as follows: Inhibition of NS5A Y93H mutant in HCV genotype 1b infected in human HuH7 replicon cells assessed as reduction in viral replication after 3 days by luciferase reporter gene assay.
The nature of assay [7]: Inhibition of NS5A Q30R mutant in HCV genotype 1a infected in human HuH7 replicon cells assessed as reduction in viral replication after 3 days by luciferase reporter gene assay.
Assay [8] can be described thus: Inhibition of NS5A Q30E mutant in HCV genotype 1a infected in human HuH7 replicon cells assessed as reduction in viral replication after 3 days by luciferase reporter gene assay.
A short description of assay [9]: Inhibition of NS5A M28T mutant in HCV genotype 1a infected in human HuH7 replicon cells assessed as reduction in viral replication after 3 days by luciferase reporter gene assay.
Assay [10] in a line: Inhibition of NS5A Q30H mutant in HCV genotype 1a infected in human HuH7 replicon cells assessed as reduction in viral replication after 3 days by luciferase reporter gene assay.
Assay [11] can be described thus: Inhibition of NS5A L31M mutant in HCV genotype 1a infected in human HuH7 replicon cells assessed as reduction in viral replication after 3 days by luciferase reporter gene assay.
The nature of assay [12]: Inhibition of NS5A Y93C mutant in HCV genotype 1a infected in human HuH7 replicon cells assessed as reduction in viral replication after 3 days by luciferase reporter gene assay.
Assay [13] is described as follows: Inhibition of NS5A Y93H mutant in HCV genotype 1a infected in human HuH7 replicon cells assessed as reduction in viral replication after 3 days by luciferase reporter gene assay.
Assay [14] in a line: Inhibition of NS5A L31M mutant in HCV genotype 2a J6 (M31) infected in human HuH7 replicon cells assessed as reduction in viral replication after 3 days by luciferase reporter gene assay.
Assay [15] can be described thus: Inhibition of NS5A in HCV genotype 3a S52 infected in human HuH7 transient chimeric replicon cells assessed as reduction in viral replication after 3 days by luciferase reporter gene assay.
Assay [16] can be described thus: Inhibition of NS5A L31M mutant in HCV genotype 2a JFH1 (M31) infected in human HuH7 replicon cells assessed as reduction in viral replication after 3 days by luciferase reporter gene assay.
A short description of assay [17]: Inhibition of NS5A in HCV genotype 4a ED43 infected in human HuH7 transient chimeric replicon cells assessed as reduction in viral replication after 3 days by luciferase reporter gene assay.
Assay [18] can be described thus: Inhibition of NS5A in HCV genotype 3a S52 infected in human HuH7 replicon cells assessed as reduction in viral replication after 3 days by luciferase reporter gene assay.
The nature of assay [19]: Inhibition of NS5A in HCV genotype 4a ED43 infected in human HuH7 replicon cells assessed as reduction in viral replication after 3 days by luciferase reporter gene assay.

Usually EC50 stands for the concentration at which the effect is half-maximal.

As to `COC[C@H]1C[C@@H](c2nc3ccc4cc5c(cc4c3[nH]2)OCc2cc(-c3cnc([C@@H]4CCCN4C(=O)[C@@H](NC(=O)OC)C(C)C)[nH]3)ccc2-5)N(C(=O)[C@@H](NC(=O)OC)C(C)C)C1`, the concentration for a half-maximal effect (EC50) in assay [1] amounted to 0.021 nM; in assay [2], 0.026 nM; in [3], 0.135 nM; in assay [4] it was 0.037 nM; in assay [5] it was 0.026 nM; in assay [6], 0.086 nM. Besides, the concentration for a half-maximal effect (EC50) in [7] came out at 0.22 nM; in [8] it was 10 nM; in assay [9], 0.19 nM; in [10], 0.15 nM; in assay [11] it was 0.37 nM; in assay [12], 0.22 nM. Besides, the EC50 in assay [13] amounted to 4.7 nM; in assay [14], 0.28 nM; in assay [15] it was 0.024 nM; in assay [16], 0.008 nM; in assay [17] it was 0.014 nM.
In the case of `COC(=O)N[C@H](C(=O)N1CCC[C@H]1c1ncc(-c2ccc3c(c2)COc2cc4c(ccc5nc([C@@H]6CC[C@H](C)N6C(=O)[C@@H](NC(=O)OC)C(C)C)[nH]c54)cc2-3)[nH]1)C(C)C`, the EC50 in [1] stood at 0.011 nM; in assay [2] it was 0.018 nM; in assay [18], 0.077 nM; in [19], 0.02 nM; in assay [14], 0.234 nM; in assay [16], 0.019 nM.
